We go through 21 molecules from patent US12098145B2 (Libra Therapeutics, Inc., priority 2022, dated 2024).

For this assay, the target named is T1, TRPML1 (Homo sapiens, UniProt Q9GZU1).
T1 construct: expressed in transfected cells; host or cells: HEK T-REx cells stably expressing GCaMP6f and TRPML1
The assay can be described thus: Cellular TRPML1 assay (FLIPR, GCaMP6f calcium read-out). Type of assay: cell-based. Particulars: HEKT-REx/GCaMP6f/TRPML1 cells, FLIPR TETRA, kinetic response over 300 seconds; for EC50: read-out: TRPML1 FLIPR pEC50 (converted). Here is the method:
Example A: Cellular TRPML1 Assay
The final clone for the TRPML1 assay is HEKT-REx/GCaMP6f/TRPML1. GCaMP6f is a genetically encoded calcium indicator that is stably expressed in this cell line and used as a fluorescent read-out.
Experiments were performed in 384 MTP format. Cells are seeded at 15000 cells/well in 20 μl/well of Optimem+0.5% FBS without selection antibiotics. Twenty-four hours later, cells are assayed for the response to various compounds using the Ca^2+ sensitive GCaMP6f protein stably expressed in the cells as readout.
The experiment was performed in a 384-well format according to the following procedures: • 24 h after seeding, the cells were pre-incubated at room temperature for about 10 min. • Started the experiment at the FLIPR^TETRA by injecting 10 μL/w of 3× concentrated test compounds and controls in Ca^2+ free Tyrode's buffer. Monitored the kinetic response over a period of 300 seconds. • Final DMSO concentration: 0.5%
Data from FLIPR^TETRA measurements were analyzed with the Genedata Screener© software.

T1 sequence (Q9GZU1 whole entry): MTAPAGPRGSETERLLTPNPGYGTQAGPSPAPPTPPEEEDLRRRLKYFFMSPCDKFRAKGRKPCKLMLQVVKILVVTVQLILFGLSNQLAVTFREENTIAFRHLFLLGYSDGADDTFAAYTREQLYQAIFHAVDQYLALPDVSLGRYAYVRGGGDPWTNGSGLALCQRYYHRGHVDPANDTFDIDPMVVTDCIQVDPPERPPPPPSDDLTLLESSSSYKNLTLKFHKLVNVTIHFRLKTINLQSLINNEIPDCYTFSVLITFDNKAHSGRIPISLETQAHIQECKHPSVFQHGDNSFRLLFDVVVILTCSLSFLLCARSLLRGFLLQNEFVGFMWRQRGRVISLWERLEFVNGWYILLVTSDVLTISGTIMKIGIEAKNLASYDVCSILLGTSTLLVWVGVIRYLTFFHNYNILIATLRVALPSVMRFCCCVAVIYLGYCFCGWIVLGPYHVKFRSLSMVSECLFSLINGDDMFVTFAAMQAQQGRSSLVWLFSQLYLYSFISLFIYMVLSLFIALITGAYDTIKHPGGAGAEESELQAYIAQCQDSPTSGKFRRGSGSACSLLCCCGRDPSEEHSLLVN

Regarding `CCC1(OC)CN(c2nc(C(=O)Nc3cc(O)c(O[C@@H]4C[C@@H]5C[C@@H]5C4)c(F)c3)c(CC(F)(F)F)o2)C1` [Example 268, N-(4-(cis-bicyclo[3.1.0]hexan-3-yloxy)-3-fluoro-5-hydroxyphenyl)-2-(3-ethyl-3-methoxyazetidin-1-yl)-5-(2,2,2-trifluoroethyl)oxazole-4-carboxamide], the EC50 is 1000 to 10000 nM.

For `CCc1oc(N2CC(CC)(CO)C2)nc1C(=O)Nc1cc(F)c(O[C@@H]2C[C@@H]3C[C@@H]3C2)c(Cl)c1` [Example 220, N-(4-(cis-bicyclo[3.1.0]hexan-3-yloxy)-3-chloro-5-fluorophenyl)-5-ethyl-2-(3-ethyl-3-(hydroxymethyl)azetidin-1-yl)oxazole-4-carboxamide], the EC50 is 10 to 1000 nM.

For `O=C(Nc1cc(F)c(O[C@@H]2C[C@@H]3C[C@@H]3C2)c(F)c1)c1nc(N2CCOCC2)oc1CC(F)(F)F` [Example 181, N-(4-(cis-bicyclo[3.1.0]hexan-3-yloxy)-3,5-difluorophenyl)-2-morpholino-5-(2,2,2-trifluoroethyl)oxazole-4-carboxamide], the EC50 is 1000 to 10000 nM.

As for `O=C(Nc1ccc(O[C@H]2COCC2(F)F)c(F)c1)c1nc(N2CCCC2)oc1CC(F)(F)F` [Example 69, (S)—N-(4-((4,4-difluorotetrahydrofuran-3-yl)oxy)-3-fluorophenyl)-2-(pyrrolidin-1-yl)-5-(2,2,2-trifluoroethyl)oxazole-4-carboxamide], the EC50 was 10 to 1000 nM.

In the case of `O=C(Nc1cc(F)c(OC2CCC3(CC3)C2)c(F)c1)c1nc(N2CCCC2)oc1CC(F)(F)F` (stereo not drawn) [Example 138, N-(3,5-difluoro-4-(spiro[2.4]heptan-5-yloxy)phenyl)-2-(pyrrolidin-1-yl)-5-(2,2,2-trifluoroethyl)oxazole-4-carboxamide], the EC50 is 10 to 1000 nM.

As for `O=C(Nc1ccc(OC2CCCCC2)c(F)c1)c1nc(N2CCCC2)oc1CC(F)(F)F` [Example 65, N-(4-(cyclohexyloxy)-3-fluorophenyl)-2-(pyrrolidin-1-yl)-5-(2,2,2-trifluoroethyl)oxazole-4-carboxamide], the EC50 was 1000 to 10000 nM.

Regarding `CCc1oc(N2CC(CC)(OC)C2)nc1C(=O)Nc1cc(F)c(OC2CCOC2)c(F)c1` (stereo not drawn) [Example 234, N-(3,5-difluoro-4-((tetrahydrofuran-3-yl)oxy)phenyl)-5-ethyl-2-(3-ethyl-3-methoxyazetidin-1-yl)oxazole-4-carboxamide], the EC50 is 1000 to 10000 nM.

Consider `CCc1oc(N2CC3COCC3C2)nc1C(=O)Nc1cc(F)c(N2CC3CC(C3)C2)c(F)c1` (stereo not drawn) [Example 257, N-(4-(3-azabicyclo[3.1.1]heptan-3-yl)-3,5-difluorophenyl)-5-ethyl-2-(tetrahydro-1H-furo[3,4-c]pyrrol-5(3H)-yl)oxazole-4-carboxamide], for which the EC50 is 1000 to 10000 nM.

On to `CCc1oc(N2CC(C)(OC)C2)nc1C(=O)Nc1cc(C)c(O[C@@H]2C[C@@H]3C[C@@H]3C2)c(F)c1` [Example 226, N-(4-(cis-bicyclo[3.1.0]hexan-3-yloxy)-3-fluoro-5-methylphenyl)-5-ethyl-2-(3-methoxy-3-methylazetidin-1-yl)oxazole-4-carboxamide], for which the EC50 was 10 to 1000 nM.

For the molecule `COC1(C)CN(c2nc(C(=O)Nc3ccc(OC4CC5CCC(C4)O5)c(F)c3)c(CC(F)(F)F)o2)C1` (stereo not drawn) [Example 133, N-(4-((8-oxabicyclo[3.2.1]octan-3-yl)oxy)-3-fluorophenyl)-2-(3-methoxy-3-methylazetidin-1-yl)-5-(2,2,2-trifluoroethyl)oxazole-4-carboxamide], the EC50 was 1000 to 10000 nM.

`Cc1oc(N2CCC(CN3CCC(F)(F)CC3)C2)nc1C(=O)Nc1ccc(N2CCCCC2)c(F)c1` (stereo not drawn) [Example 107, 2-(3-((4,4-difluoropiperidin-1-yl)methyl)pyrrolidin-1-yl)-N-(3-fluoro-4-(piperidin-1-yl)phenyl)-5-methyloxazole-4-carboxamide]: the EC50 is 10000 to 100000 nM.

For the molecule `Cc1cc(NC(=O)c2nc(N3CCCC3)oc2CN2CCC2)cc(F)c1O[C@@H]1C[C@@H]2C[C@@H]2C1` [Example 305, 5-(azetidin-1-ylmethyl)-N-(4-(cis-bicyclo[3.1.0]hexan-3-yloxy)-3-fluoro-5-methylphenyl)-2-(pyrrolidin-1-yl)oxazole-4-carboxamide], the EC50 was 1000 to 10000 nM.

For `O=C(Nc1ccc(OC2CC(F)(F)C2)c(F)c1)c1nc(N2CCCC2)oc1CC(F)(F)F` [Example 44, N-[4-(3,3-difluorocyclobutoxy)-3-fluorophenyl]-2-(pyrrolidin-1-yl)-5-(2,2,2-trifluoroethyl)oxazole-4-carboxamide], the EC50 is 1000 to 10000 nM.

In the case of `Cc1oc(N2CCC(CN3CCC3)C2)nc1C(=O)Nc1ccc(N2CCCCC2)c(F)c1` (stereo not drawn) [Example 106, 2-(3-(azetidin-1-ylmethyl)pyrrolidin-1-yl)-N-(3-fluoro-4-(piperidin-1-yl)phenyl)-5-methyloxazole-4-carboxamide], the EC50 is 10000 to 100000 nM.

In the case of `Cc1oc(N2CCC(F)(F)C2)nc1C(=O)Nc1ccc(N2CCCCC2)c(F)c1` [Example 121, 2-(3,3-difluoropyrrolidin-1-yl)-N-(3-fluoro-4-(piperidin-1-yl)phenyl)-5-methyloxazole-4-carboxamide], the “TRPML1 FLIPR pEC50” value is “C (C = 5.0-4.0)”.

Take `O=C(Nc1cc(F)c(OCC23CC(C2)C3)c(F)c1)c1nc(N2CCCC2)oc1CC(F)(F)F` [Example 136, N-(4-(bicyclo[1.1.1]pentan-1-ylmethoxy)-3,5-difluorophenyl)-2-(pyrrolidin-1-yl)-5-(2,2,2-trifluoroethyl)oxazole-4-carboxamide]: the EC50 was 10 to 1000 nM.

As for `CC1(C)CN(c2nc(C(=O)Nc3cc(F)c(OC4CC5C[C@H]5C4)c(F)c3)c(CC(F)(F)F)o2)C1` (stereo partly drawn) [Example 37, N-(4-{cis-bicyclo[3.1.0]hexan-3-yloxy}-3,5-difluorophenyl)-2-(3,3-dimethylazetidin-1-yl)-5-(2,2,2-trifluoroethyl)oxazole-4-carboxamide], the EC50 was 10 to 1000 nM.

As for `CC1(C)CN(c2nc(C(=O)Nc3cc(F)c(O[C@@H]4C[C@@H]5C[C@@H]5C4)c(F)c3)c(CC(F)(F)F)o2)CCO1` [Example 184, N-(4-(cis-bicyclo[3.1.0]hexan-3-yloxy)-3,5-difluorophenyl)-2-(2,2-dimethylmorpholino)-5-(2,2,2-trifluoroethyl)oxazole-4-carboxamide], the EC50 is 1000 to 10000 nM.

Consider `COC1(C)CN(c2nc(C(=O)Nc3cc(C)c(O[C@@H]4C[C@@H]5C[C@@H]5C4)c(O)c3)c(CC(F)(F)F)o2)C1` [Example 263, N-(4-(cis-bicyclo[3.1.0]hexan-3-yloxy)-3-hydroxy-5-methylphenyl)-2-(3-methoxy-3-methylazetidin-1-yl)-5-(2,2,2-trifluoroethyl)oxazole-4-carboxamide], for which the EC50 is 10 to 1000 nM.

Take `CCCc1oc(N2CCCC2)nc1C(=O)Nc1ccc(OC2CCCC2(F)F)c(F)c1` (stereo not drawn) [Example 110, N-(4-((2,2-difluorocyclopentyl)oxy)-3-fluorophenyl)-5-propyl-2-(pyrrolidin-1-yl)oxazole-4-carboxamide]: the EC50 is 1000 to 10000 nM.

`O=C(Nc1ccc(OC2CC3C[C@@H]3C2)c(F)c1)c1nc(N2CC3CCOC3C2)oc1CC(F)(F)F` (stereo partly drawn) [Example 187, N-(4-(cis-bicyclo[3.1.0]hexan-3-yloxy)-3-fluorophenyl)-2-(hexahydro-5H-furo[2,3-c]pyrrol-5-yl)-5-(2,2,2-trifluoroethyl)oxazole-4-carboxamide]: the EC50 was 10 to 1000 nM.
